In ChEMBL document CHEMBL1201862, “PubChem BioAssay data set” (2004):
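1) Cells in 96-well plates. 2) Compound, 48 h, 5 concentrations. 3) Linear interpolation between surrounding doses. 4) Unreached endpoint = highest concentration. GI50 = concentration required for 50% inhibition of growth.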 The source made the active and inactive calls. Cut-off read from the data, not from the text of the source: active = GI50 up to about 1.1 µM and inactive = higher.

Tests used:
Test in all cases: NCI anticancer screen, dose series, 48 h
SW-620 = system: SW-620
U-251 = system: U-251
SF-295 = system: SF-295
SF-539 = system: SF-539
RXF 393 = system: RXF 393
PC-3 = system: PC-3
SK-OV-3 = system: SK-OV-3
SF-268 = system: SF-268
SK-MEL-5 = system: SK-MEL-5
CAKI-1 = system: CAKI-1
LOX IMVI = system: LOX IMVI
NCI-H226 = system: NCI-H226
MCF7 = system: MCF7
ACHN = system: ACHN
HCC 2998 = system: HCC 2998
UO-31 = system: UO-31
M14 = system: M14
Malme-3M = system: Malme-3M
MOLT-4 = system: MOLT-4
Hs-578T = system: Hs-578T

Compound | GI50 (SW-620) | GI50 (U-251) | GI50 (SF-295) | GI50 (SF-539) | GI50 (RXF 393) | GI50 (PC-3) | GI50 (SK-OV-3) | GI50 (SF-268) | GI50 (SK-MEL-5) | GI50 (CAKI-1) | GI50 (LOX IMVI) | GI50 (NCI-H226) | GI50 (MCF7) | GI50 (ACHN) | GI50 (HCC 2998) | GI50 (UO-31) | GI50 (M14) | GI50 (Malme-3M) | GI50 (MOLT-4) | GI50 (Hs-578T)
CN(C)/C=C/c1ccncc1 | > 100 µM (inactive) | > 100 µM (inactive) | > 100 µM (inactive) | > 100 µM (inactive) | > 100 µM (inactive) | > 100 µM (inactive) | > 100 µM (inactive) | > 100 µM (inactive) | > 100 µM (inactive) | > 100 µM (inactive) | > 100 µM (inactive) | > 100 µM (inactive) | > 100 µM (inactive) | > 100 µM (inactive) | > 100 µM (inactive) | > 100 µM (inactive) | > 100 µM (inactive) | > 100 µM (inactive) | 28.7 µM (inactive) | 
CC1=CC[C@@H]2[C@@H](CC[C@@]2(C)O)C(C)(C)[C@H]1CC[C@@H]1[C@@]2(C)CC[C@@H](O)C(C)(C)O[C@@H]2CC[C@]1(C)O | 31.8 µM (inactive) | 17.1 µM (inactive) | 33.1 µM (inactive) | 19.6 µM (inactive) |  | 40.6 µM (inactive) | 35.9 µM (inactive) |  | 13.3 µM (inactive) | 20 µM (inactive) | 16.3 µM (inactive) |  | 31 µM (inactive) | 23.2 µM (inactive) | 17.5 µM (inactive) | 17 µM (inactive) | 22.5 µM (inactive) |  | 17.9 µM (inactive) | 
COc1cc(-c2cc(=O)c3c(OC)c(OC)c(OC)c(OC)c3o2)cc(OC)c1OC [HEPATAMETHOXYFLAVONE] | 55 µM (inactive) | 40.1 µM (inactive) | 28.1 µM (inactive) | > 100 µM (inactive) | 28.1 µM (inactive) |  | 3.87 µM (inactive) | 32.9 µM (inactive) | 12.4 µM (inactive) | 21.6 µM (inactive) | 25.9 µM (inactive) | 44.8 µM (inactive) | 84.3 µM (inactive) | 21.9 µM (inactive) | 30.3 µM (inactive) | 7.38 µM (inactive) | 45.7 µM (inactive) | 39.6 µM (inactive) | 24.9 µM (inactive) | 29 µM (inactive)
Cc1ccc(-c2nnc(CCCCCCCCc3nnc(-c4ccc(C)cc4O)n3N)n2N)c(O)c1 | > 100 µM (inactive) | > 100 µM (inactive) | 77.1 µM (inactive) | > 100 µM (inactive) |  |  | 39.2 µM (inactive) | > 100 µM (inactive) |  | > 100 µM (inactive) | > 100 µM (inactive) |  | > 100 µM (inactive) | > 100 µM (inactive) | > 100 µM (inactive) | > 100 µM (inactive) | > 100 µM (inactive) | > 100 µM (inactive) | 33 µM (inactive) | 44.9 µM (inactive)
COc1ccc2c(c1)nc1n2C(c2c(F)cccc2Cl)SC1 (stereo not drawn) |  | 5.08 µM (inactive) | 2.74 µM (inactive) | 3.25 µM (inactive) |  |  |  | 3.66 µM (inactive) | 3.17 µM (inactive) | 19.1 µM (inactive) | 6.64 µM (inactive) | 4.75 µM (inactive) | 3.66 µM (inactive) | 20.8 µM (inactive) | 4.2 µM (inactive) | > 20.2 µM (inactive) | 3.9 µM (inactive) | 1.02 µM (active) |  | 1.69 µM (inactive)
CCOC(=O)C(=Cc1ccccc1Cl)C(=O)OCC | 1.32 µM (inactive) | 1.63 µM (inactive) | 2.47 µM (inactive) | 2.1 µM (inactive) | 1.61 µM (inactive) | 1.79 µM (inactive) | 5.26 µM (inactive) | 2.19 µM (inactive) | 2.06 µM (inactive) | 2.02 µM (inactive) | 1.75 µM (inactive) | 2.9 µM (inactive) |  | 2.61 µM (inactive) | > 10 µM (inactive) | 1.71 µM (inactive) | 1.5 µM (inactive) | 1.82 µM (inactive) | 2.52 µM (inactive) | 2.89 µM (inactive)
C=C(Br)C[N+]12CN3CN(CN(C3)C1)C2 | > 100 µM (inactive) | > 100 µM (inactive) | > 100 µM (inactive) | > 100 µM (inactive) | > 100 µM (inactive) | > 100 µM (inactive) | > 100 µM (inactive) | > 100 µM (inactive) | > 100 µM (inactive) | > 100 µM (inactive) | > 100 µM (inactive) | > 100 µM (inactive) |  | > 100 µM (inactive) | > 100 µM (inactive) | > 100 µM (inactive) | > 100 µM (inactive) | > 100 µM (inactive) | > 100 µM (inactive) | > 100 µM (inactive)
O=C1OCCC[C@H]2O[C@@H](COCc3ccccc3)C[C@@H]12 | > 100 µM (inactive) | > 100 µM (inactive) | > 100 µM (inactive) | > 100 µM (inactive) |  | > 100 µM (inactive) | > 100 µM (inactive) | > 100 µM (inactive) | > 100 µM (inactive) | > 100 µM (inactive) |  | > 100 µM (inactive) | > 100 µM (inactive) | > 100 µM (inactive) |  | > 100 µM (inactive) | > 100 µM (inactive) |  | > 100 µM (inactive) | > 100 µM (inactive)
